# Values of other authors as cited in patent publication US20160347782A1, “4-methylcatechol Derivatives and Uses Thereof” (THANARES GMBH, priority 2011, published 2016).
# Columns and labels:
# liver cells = liver cells in vitro; in the μmol range
# [1] = tested on: normal human epidermal melanocytes
Structure (SMILES),Proliferation of melanoma cells (melanoma cells),Inhibition of hepatocellular cholesterol synthesis (liver cells),Growth of normal human epidermal melanocytes [1]
"Cc1ccc(O)c(O)c1 [Example 4-MC, 4-Methylcatechol]",inhibits,inhibits,without impairing
O=c1c(O)c(-c2ccc(O)c(O)c2)oc2cc(O)cc(O)c12 [quercetin],,inhibits,
